Data as given in PubChem BioAssay (NCI).
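Following 48 hours of exposure in 96-well plates, responses at five concentrations were used to interpolate endpoints linearly. At the TGI there is no net growth.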

Legend:
Assay in all cases: growth of human tumour cells (NCI), 48 h
MOLT-4 leukemia = tested on: MOLT-4 leukemia
NCI-H460 lung = tested on: NCI-H460 lung
SNB-75 CNS = tested on: SNB-75 CNS
EKVX NSCLC = tested on: EKVX NSCLC
RPMI-8226 leukemia = tested on: RPMI-8226 leukemia
HOP-62 NSCLC = tested on: HOP-62 NSCLC
SK-OV-3 ovarian = tested on: SK-OV-3 ovarian
SK-MEL-28 melanoma = tested on: SK-MEL-28 melanoma
SN12C renal = tested on: SN12C renal
A549 NSCLC = tested on: A549 NSCLC
MDA-MB-435 = tested on: MDA-MB-435

Measured: TGI

CNC1Cc2c[nH]c3cccc(c23)C12C=C(C)C(=O)O2 (stereo unspecified)
> 100 µM: MOLT-4 leukemia | NCI-H460 lung | SNB-75 CNS | EKVX NSCLC | RPMI-8226 leukemia | HOP-62 NSCLC | SK-OV-3 ovarian | SK-MEL-28 melanoma | SN12C renal | A549 NSCLC | MDA-MB-435
